# Reference: patent publication US20180348222A1, “BUFADIENOLIDE FOR TREATMENT OF NON-SMALL CELL LUNG CANCER” (priority 2017, published 2018)
# What was measured:
# [1] = tested on: A549 and H1975 cells; test: Apoptosis assay, co-treatment with Proscillaridin A; assay type: cell-based
# Procedure: (§1) A549, H1975 and HCC827 cells (1×10^5 cells /well) were seeded in a 6 -well plate for 24 h, and treated with the indicated concentrations of Proscillaridin A for an additional 24 h at 37° C. After indicated hours, the cells were washed by ice-cold 1×PBS once and harvested by trypsination. Then cell were centrifuged, collected and resuspended in ice-cold 1×PBS. After removing the supernatants, cell pellets were re-suspended in 100 μL 1× Annexin-binding buffer. The cells were then double-stained with Annexin-V FITC and PI (100 μg/mL) of 2 μL respectively for 15 min at room temperature in dark. After that, 300 μL 1× Annexin-binding buffer was added. Apoptotic cells were quantitatively counted by a BD Aria III Flow Cytometer (BD Biosciences, San Jose, Calif., USA).
# [2] = tested on: acetyl-CoA carboxylase (ACC) phosphorylation; test: Western blot; assay type: cell-based; conditions: FIG. 8A
# Procedure: (§2) After incubation A549, H1975 and HCC827 cells with Proscillaridin A for 18 hours, cells were harvested and washed with cold 1× PBS. Then, cells were lysed with ice-cold RIPA lysis buffer with protease and phosphatase inhibitors added to extract the cell protein extraction. The supernatants were collected by centrifugation at 12,000 g, for 5 min. The quantitation of total protein extraction was measured by Bio-Rad DCTM protein assay kit (Bio-Rad, Philadelphia, Pa., USA). Then 35 μg of protein were loaded and electrophoretically separated on 8% SDS-PAGE gel and then transferred to Nitrocellulose (NC) membrane.
# (§3) Membranes were blocked with 5% non-fat milk and […] containing 0.1% Tween-20 (TBST) for 1 h at room temperature. After 1 h, membranes were incubated with primary antibodies (1:1000 dilution) against β-actin, GAPDH, total/phosphor-EGFR, total/phosphor-AKT, total/phosphor-JNK, total/phosphor-AMPK, total/phosphor-ACC, phosphor-mTOR, IKK-α, Iκ-Bα, phosphor-NFκB-P65, Caspase-9, Caspase-7, BAX and Bcl-2 at 4° C. with gently shaking overnight. Membranes were washed with TBST for 3 times (5 min/time), and incubated with secondary fluorescent antibody (1:10000 dilutions) for 1 h at room temperature. Rewashing with TBST for 3 times (15 min/time), the stripes were visualized by LI-COR Odessy scanner (Belfast, Me., USA).
# [3] = tested on: mTOR phosphorylation; test: Western blot; assay type: cell-based; conditions: FIG. 8A
# Procedure: as §2, §3
# [4] = tested on: JNK phosphorylation; test: Western blot; assay type: cell-based; conditions: FIG. 8A
# Procedure: as §2, §3
# [5] = tested on: AMPK phosphorylation; test: Western blot; assay type: cell-based; conditions: FIG. 8A
# Procedure: as §2, §3
# [6] = tested on: NF-κB pathway; test: Western blot; assay type: cell-based; conditions: dose-dependent
# Procedure: as §2, §3
# [7] = tested on: EGFR phosphorylation of tyrosine residue 1173 in H1975; test: Western blot of EGFR activation; assay type: cell-based; conditions: H1975, 18 hours
# Procedure: as §2, §3
# [8] = tested on: EGFR phosphorylation of tyrosine residue 1173 in HCC827; test: Western blot of EGFR activation; assay type: cell-based; conditions: HCC827, 18 hours
# Procedure: as §2, §3
# [9] = tested on: HCC827 cells; test: Apoptosis assay (Annexin-V/PI flow cytometry); assay type: cell-based; conditions: HCC827, 50 nM, 24 h
# Procedure: as §1
# [10] = tested on: A549 cells; test: Apoptosis assay (Annexin-V/PI flow cytometry); assay type: cell-based
# Procedure: as §1
# [11] = tested on: H1975 cells; test: Apoptosis assay (Annexin-V/PI flow cytometry); assay type: cell-based
# Procedure: as §1
# [12] = tested on: PARP, Caspase-7, Caspase-9, AKT, BAX, Bcl-2; test: Western blot of apoptosis-related proteins; assay type: cell-based; conditions: A549, H1975, HCC827
# Procedure: as §2, §3
# [13] = biological target: Na^+/K^+ ATPase; test: Na^+/K^+ ATPase enzyme activity assay; assay type: biochemical; conditions: in vitro, enzyme from porcine cerebral cortex
# Procedure: The enzymatic activity of Na^+/K^+ ATPase (purchased from Sigma as lyophilized powder from porcine cerebral cortex) was measured by colorimetric quantification of P, released during ATP hydrolysis. A previously published procedure was adapted with some modifications. Begin with incubating 10 μl of Na^+/K^+ ATPase (600 units/m1) with 2.5 μl of KCl/NaCl solution (45 mM KCl and 2 M NaCl) at 37° C. for 30 min with either 5 μl of DMSO (control) or 5 μl of P.A (in different indicated concentrations) in 67.5 μl of buffer (24 mM Tric HCl buffer with 0.68 mM ethylenediaminetetraacetic acid and 6.0 mM magnesium chloride, pH 7.8). ATP (5 μl of 80 mM solution) was then added, and the reaction mixture was incubated again at 37° C. for 15 min. Trichloroacetic acid (30 μl of 100% w/v) was then added to the reaction mixture followed by centrifugation for 5 min. Supernatant (50 μl aliquot) was transferred to a 96 well plated containing 100 μl of Taussky-Shorr reagent. The absorbance at 660 nm was read after incubation at RT for 5 min.
# [14] = tested on: H358 cells; test: MTT cytotoxicity assay; assay type: cell-based; conditions: H358, KRAS, 24 h
# Procedure: (§4) Cells were seeded in a 96-well microplate with 3000-5000 cells/well confluence, and put into the incubator overnight for cells adhesion. Different concentrations of drug Proscillaridin A were added with Dimethyl sulfoxide (DMSO) as vehicle control. The microplates were incubated for further 24 h. Each dosage was repeated in triplicate. 10 μL of MTT (5 mg/mL) solution was added to each well. The plate was placed back into the incubator for 4 h. After that, 100 μL of resolved solution (10% SDS and 0.1 mM HCL) was added to each well.
# (§5) Before dissolving the formazan crystals, the microplate was put back into the incubator for another 4 h. The absorbance of the plate was measured at 570 nm with reference 650 nm by a microplate reader (Tecan, Morrisville, N.C., USA). Cell viability was calculated by percentages of the absorbance of the treatment group divided by the absorbance of untreated group. At least three independent experiments were performed for data analysis and presentation.
# [15] = tested on: CCD19-LU normal lung fibroblast cell line; test: MTT cytotoxicity assay; assay type: cell-based
# Procedure: as §4, §5
# [16] = tested on: HCC827 cells; test: MTT cytotoxicity assay; assay type: cell-based; conditions: HCC827, EGFR exon 19 deletion, 24 h
# Procedure: as §4, §5
# [17] = tested on: HCC78 cells; test: MTT cytotoxicity assay; assay type: cell-based; conditions: HCC78, SLC3482-ROS, 24 h
# Procedure: as §4, §5
# [18] = tested on: A549 cells; test: MTT cytotoxicity assay; assay type: cell-based; conditions: A549, EGFR wild type, 24 h
# Procedure: as §4, §5
# [19] = tested on: H2228 cells; test: MTT cytotoxicity assay; assay type: cell-based; conditions: H2228, EML4-ALK, 24 h
# Procedure: as §4, §5
# [20] = tested on: H1975 cells; test: MTT cytotoxicity assay; assay type: cell-based; conditions: H1975, EGFR double mutant, 24 h
# Procedure: as §4, §5
# [21] = tested on: A549, H1975 and HCC827 cells; test: Colony-formation assay; assay type: cell-based; conditions: all three cell lines
# Procedure: Colony-forming assay was performed as previously described. Briefly, About 300 cells were plated into every well of 6 -well plate with 2 ml of culture medium and grown at 37° C. with 5% CO2. After 48 h culture for cell adherence to the plate, rinsed with fresh medium, Proscillaridin A (with indicated different dosages) was added to the medium. 48 h later, the cells were washed twice with PBS and then incubated in drug-free medium. The medium was changed every 5 days. After culturing for additional 10 to 14 days, the medium was discarded and each dish was washed twice with PBS carefully. The cells were fixed with 3.7% Paraformaldehyde for 20 min and 0.2% crystal violet solution in 10% ethanol for 10 min. Excess stain was removed by washing repeatedly with PBS. All the procedures were done at room temperature. The plates can be stored at room temperature or at +4° C. for several months without any visible fading of the dye.
# [22] = tested on: DR4 expression; test: Regular and quantitative RT-PCR; assay type: cell-based; conditions: 12 h treatment
# Procedure: Cells were incubated with Proscillaridin A for 12 hours. Total RNA was then extracted from treated cells using a TRIzol reagent (Invitrogen, Carlsbad, Calif., USA) following the manufacturer's instructions and was used to prepare cDNA. Quantitative real-time PCR was performed with High-productivity Real-Time quantitative PCR ViiA™7 (Life Technologies).
# The glyceraldehyde […] dehydrogenase (GAPDH) gene was used as the reference gene. All data were means of fold change of triplicate analysis and normalized with those of GAPDH.
# [23] = tested on: A549 and H1975 cells; test: Measurement of intracellular calcium (Fluo-3); assay type: cell-based; conditions: A549 and H1975, after 6 h
# Procedure: Changes in intracellular free calcium were measured by a fluorescent dye, Fluo-3 as previously described. Briefly, A549 and H1975 cells were washed twice with culture media after Proscillaridin A treatment (6.25-25 nM) for 6 hours. Then cell suspensions were incubated with 5 μM Fluo-3 at 37° C. for 30 min. After the cells were washed twice with HBSS, the re-suspended cell samples were then subjected to FACS analysis. At least 10,000 events were analyzed.
compound,measurement,setting,value
c1cc(-c2cnn3cc(-c4ccc(OCCN5CCCCC5)cc4)cnc23)ccn1 [Compound C],apoptotic cells after co-treatment with Proscillaridin A,"[1]; AMPK inhibitor co-treatment, A549 and H1975",partially weakened the apoptotic cells
CC(=O)OCOC(=O)CN(CC(=O)OCOC(C)=O)c1ccccc1OCCOc1ccccc1N(CC(=O)OCOC(C)=O)CC(=O)OCOC(C)=O [BAPTA/AM],apoptotic cells after co-treatment with Proscillaridin A,"[1]; Ca^2+ chelator co-treatment, flow cytometry",significant decrease of apoptotic cells
Proscillaridin A,phosphorylation of ACC,[2],significantly induced the phosphorylation
same,phosphorylation of mTOR,[3],inhibited the phosphorylation of mTOR
same,phosphorylation of JNK,[4],significantly activated the phosphorylation of JNK
same,phosphorylation of AMPK,[5],significantly induced the phosphorylation of AMPK
same,NF-κB pathway activation,[6],significantly inhibited
same,EGFR activation (phosphorylation of tyrosine residue 1173),[7],inhibited the EGFR activation
same,EGFR activation (phosphorylation of tyrosine residue 1173),[8],inhibited the EGFR activation
same,increase of apoptosis,[9],about 10%
same,apoptotic cells,"[10]; A549, 50 nM, 24 h",about 70%
same,concentration at which significant induction of apoptosis starts,"[10]; A549, 24 h",12.5 nM
same,apoptotic cells,"[11]; H1975, 50 nM, 24 h",about 70%
same,concentration at which significant induction of apoptosis starts,"[11]; H1975, 24 h",25 nM
same,AKT activation,[12],inhibited
same,BAX level,[12],up-regulated
same,Bcl-2 level,[12],down-regulated
same,"PARP, Caspase-7 and Caspase-9 cleavage",[12],cleaved and activated
same,IC50,[13],0.00083 ± 0.0003 µM
same,CC50,[14],0.0258 ± 0.0049 µM
same,CC50,"[15]; CCD19-LU normal fibroblast cell, 24 h",> 0.4 µM
same,inhibition of cell proliferation in normal lung fibroblast cells,"[15]; CCD19-LU, 30-folds higher concentrations of the CC50 in EGFR-dependent NSCLC cells",no significant inhibitory effect
same,CC50,[16],0.0139 ± 0.0018 µM
same,CC50,[17],0.0376 ± 0.0099 µM
same,CC50,[18],0.014 ± 0.0028 µM
same,CC50,[19],0.0236 ± 0.0054 µM
same,CC50,[20],0.015 ± 0.0036 µM
same,clonogenic growth (colony formation),[21],can suppress clonogenic growth
same,DR4 gene expression,[22],significantly elevated
same,cellular Ca^2+ level,[23],remarkably increases the in vitro Ca^2+ level
